This note sets out measurements from the supplement of paper PMC10307832.

Each structure is given as a SMILES string.

The first assay deals with NCI-H2009. In words: relative viability (nuclei count vs DMSO), 5 days (fraction); higher = more cells survive. The following applies: first compound 2.53 µM. The method in brief: (§1)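 Dosing by pin tool came one day after lung cancer cell lines were seeded in 1536-well plates, using either one drug or a fixed anchor-drug dose plus five library-drug doses (not always all listed) in √10 steps. After 5 days, nuclei were counted on 4× images. Relative viability is treated-well nuclei count divided by vehicle-well nuclei count, and values are medians of duplicate plates.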
As for `CCCCCCCCCCCC1=C(O)C(=O)C=C(O)C1=O` [Embelin] + CS(=O)(=O)N1CCN(Cc2cc3nc(-c4cccc5[nH]ncc45)nc(N4CCOCC4)c3s2)CC1 [Pictilisib] (partner 1 µM), the relative viability was found to be 0.659.
On to `CCCCCCCCCCCC1=C(O)C(=O)C=C(O)C1=O` [Embelin] + Cc1nc(NC(=O)N2CCC[C@H]2C(N)=O)sc1-c1ccnc(C(C)(C)C(F)(F)F)c1 [Alpelisib] (partner 2 µM), for which the relative viability was 1.18.

Still in this assay, the particulars now being: first compound 8 µM.
Compound `CCCCCCCCCCCC1=C(O)C(=O)C=C(O)C1=O` [Embelin] + COc1cc2c(Oc3ccc(NC(=O)C4(C(=O)Nc5ccc(F)cc5)CC4)cc3F)ccnc2cc1OCCCN1CCOCC1 [Foretinib] (partner 0.25 µM) gave a relative viability of 1.17.
As to `CCCCCCCCCCCC1=C(O)C(=O)C=C(O)C1=O` [Embelin] + CC(=O)Nc1cccc(-n2c(=O)n(C3CC3)c(=O)c3c(Nc4ccc(I)cc4F)n(C)c(=O)c(C)c32)c1 [Trametinib] (partner 0.02 µM), the relative viability amounted to 0.296.
Regarding `CCCCCCCCCCCC1=C(O)C(=O)C=C(O)C1=O` [Embelin] + CS(=O)(=O)N1CCN(Cc2cc3nc(-c4cccc5[nH]ncc45)nc(N4CCOCC4)c3s2)CC1 [Pictilisib] (partner 1 µM), the relative viability was determined as 0.679.
The compound `CCCCCCCCCCCC1=C(O)C(=O)C=C(O)C1=O` [Embelin] + Cc1nc(NC(=O)N2CCC[C@H]2C(N)=O)sc1-c1ccnc(C(C)(C)C(F)(F)F)c1 [Alpelisib] (partner 2 µM) displayed a relative viability of 1.16.

A further assay deals with PC-3 [JPC-3]. Described as above. The following applies: first compound 0.08 µM. A digest of the protocol:
as §1
The compound `CCCCCCCCCCCC1=C(O)C(=O)C=C(O)C1=O` [Embelin] + COc1cc2c(Oc3ccc(NC(=O)C4(C(=O)Nc5ccc(F)cc5)CC4)cc3F)ccnc2cc1OCCCN1CCOCC1 [Foretinib] (partner 0.25 µM) yielded a relative viability of 1.01.
Same read-out and setting: the same measure for `CCCCCCCCCCCC1=C(O)C(=O)C=C(O)C1=O` [Embelin] + CC(=O)Nc1cccc(-n2c(=O)n(C3CC3)c(=O)c3c(Nc4ccc(I)cc4F)n(C)c(=O)c(C)c32)c1 [Trametinib] (partner 0.02 µM): 0.684; for `CCCCCCCCCCCC1=C(O)C(=O)C=C(O)C1=O` [Embelin] + CS(=O)(=O)N1CCN(Cc2cc3nc(-c4cccc5[nH]ncc45)nc(N4CCOCC4)c3s2)CC1 [Pictilisib] (partner 1 µM): 0.733; for `CCCCCCCCCCCC1=C(O)C(=O)C=C(O)C1=O` [Embelin] + NC(=O)Nc1cc(-c2cccc(F)c2)sc1C(=O)N[C@H]1CCCNC1 [AZD7762] (partner 0.2 µM): 0.765.
Compound `CCCCCCCCCCCC1=C(O)C(=O)C=C(O)C1=O` [Embelin] + Cc1nc(NC(=O)N2CCC[C@H]2C(N)=O)sc1-c1ccnc(C(C)(C)C(F)(F)F)c1 [Alpelisib] (partner 2 µM) showed a relative viability of 1.03.

Still in this assay, the particulars now being: first compound 0.8 µM.
In turn, `CCCCCCCCCCCC1=C(O)C(=O)C=C(O)C1=O` [Embelin] + COc1cc2c(Oc3ccc(NC(=O)C4(C(=O)Nc5ccc(F)cc5)CC4)cc3F)ccnc2cc1OCCCN1CCOCC1 [Foretinib] (partner 0.25 µM) gave a relative viability of 1.02.
On to `CCCCCCCCCCCC1=C(O)C(=O)C=C(O)C1=O` [Embelin] + CC(=O)Nc1cccc(-n2c(=O)n(C3CC3)c(=O)c3c(Nc4ccc(I)cc4F)n(C)c(=O)c(C)c32)c1 [Trametinib] (partner 0.02 µM), for which the relative viability was 0.75.
In the case of `CCCCCCCCCCCC1=C(O)C(=O)C=C(O)C1=O` [Embelin] + CS(=O)(=O)N1CCN(Cc2cc3nc(-c4cccc5[nH]ncc45)nc(N4CCOCC4)c3s2)CC1 [Pictilisib] (partner 1 µM), the relative viability came out at 0.759.
For the compound `CCCCCCCCCCCC1=C(O)C(=O)C=C(O)C1=O` [Embelin] + NC(=O)Nc1cc(-c2cccc(F)c2)sc1C(=O)N[C@H]1CCCNC1 [AZD7762] (partner 0.2 µM), the relative viability was determined as 0.888.
With `CCCCCCCCCCCC1=C(O)C(=O)C=C(O)C1=O` [Embelin] + Cc1nc(NC(=O)N2CCC[C@H]2C(N)=O)sc1-c1ccnc(C(C)(C)C(F)(F)F)c1 [Alpelisib] (partner 2 µM), the relative viability stood at 0.988.

The assay is the same for the next values; noted with them: first compound 2.53 µM.
Compound `CCCCCCCCCCCC1=C(O)C(=O)C=C(O)C1=O` [Embelin] + COc1cc2c(Oc3ccc(NC(=O)C4(C(=O)Nc5ccc(F)cc5)CC4)cc3F)ccnc2cc1OCCCN1CCOCC1 [Foretinib] (partner 0.25 µM) returned a relative viability of 0.985.
Consider `CCCCCCCCCCCC1=C(O)C(=O)C=C(O)C1=O` [Embelin] + CC(=O)Nc1cccc(-n2c(=O)n(C3CC3)c(=O)c3c(Nc4ccc(I)cc4F)n(C)c(=O)c(C)c32)c1 [Trametinib] (partner 0.02 µM), for which the relative viability came out at 0.788.
For `CCCCCCCCCCCC1=C(O)C(=O)C=C(O)C1=O` [Embelin] + CS(=O)(=O)N1CCN(Cc2cc3nc(-c4cccc5[nH]ncc45)nc(N4CCOCC4)c3s2)CC1 [Pictilisib] (partner 1 µM), the relative viability is 0.787.
The compound `CCCCCCCCCCCC1=C(O)C(=O)C=C(O)C1=O` [Embelin] + NC(=O)Nc1cc(-c2cccc(F)c2)sc1C(=O)N[C@H]1CCCNC1 [AZD7762] (partner 0.2 µM) gave a relative viability of 0.797.
Consider `CCCCCCCCCCCC1=C(O)C(=O)C=C(O)C1=O` [Embelin] + Cc1nc(NC(=O)N2CCC[C@H]2C(N)=O)sc1-c1ccnc(C(C)(C)C(F)(F)F)c1 [Alpelisib] (partner 2 µM), for which the relative viability was 1.08.

Staying with this assay, now noted: first compound 8 µM.
Regarding `CCCCCCCCCCCC1=C(O)C(=O)C=C(O)C1=O` [Embelin] + COc1cc2c(Oc3ccc(NC(=O)C4(C(=O)Nc5ccc(F)cc5)CC4)cc3F)ccnc2cc1OCCCN1CCOCC1 [Foretinib] (partner 0.25 µM), the relative viability was found to be 1.08.
`CCCCCCCCCCCC1=C(O)C(=O)C=C(O)C1=O` [Embelin] + CC(=O)Nc1cccc(-n2c(=O)n(C3CC3)c(=O)c3c(Nc4ccc(I)cc4F)n(C)c(=O)c(C)c32)c1 [Trametinib] (partner 0.02 µM) had a relative viability of 0.614.
`CCCCCCCCCCCC1=C(O)C(=O)C=C(O)C1=O` [Embelin] + CS(=O)(=O)N1CCN(Cc2cc3nc(-c4cccc5[nH]ncc45)nc(N4CCOCC4)c3s2)CC1 [Pictilisib] (partner 1 µM) registered a relative viability of 0.669.
`CCCCCCCCCCCC1=C(O)C(=O)C=C(O)C1=O` [Embelin] + NC(=O)Nc1cc(-c2cccc(F)c2)sc1C(=O)N[C@H]1CCCNC1 [AZD7762] (partner 0.2 µM) displayed a relative viability of 0.724.
On the same count and under the same terms, the figure for `CCCCCCCCCCCC1=C(O)C(=O)C=C(O)C1=O` [Embelin] + Cc1nc(NC(=O)N2CCC[C@H]2C(N)=O)sc1-c1ccnc(C(C)(C)C(F)(F)F)c1 [Alpelisib] (partner 2 µM) is 1.05.

For a further assay, the system named is NCI-H460. Described as above. The note with it: first compound 0.08 µM. The method in brief:
as §1
As for `CCCCCCCCCCCC1=C(O)C(=O)C=C(O)C1=O` [Embelin] + COc1cc2c(Oc3ccc(NC(=O)C4(C(=O)Nc5ccc(F)cc5)CC4)cc3F)ccnc2cc1OCCCN1CCOCC1 [Foretinib] (partner 0.25 µM), the relative viability was 0.996.
In turn, `CCCCCCCCCCCC1=C(O)C(=O)C=C(O)C1=O` [Embelin] + CC(=O)Nc1cccc(-n2c(=O)n(C3CC3)c(=O)c3c(Nc4ccc(I)cc4F)n(C)c(=O)c(C)c32)c1 [Trametinib] (partner 0.02 µM) gave a relative viability of 0.173.
`CCCCCCCCCCCC1=C(O)C(=O)C=C(O)C1=O` [Embelin] + CS(=O)(=O)N1CCN(Cc2cc3nc(-c4cccc5[nH]ncc45)nc(N4CCOCC4)c3s2)CC1 [Pictilisib] (partner 1 µM) had a relative viability of 0.377.
